Source: paper PMC10394814, “Discovery and evaluation of active compounds from Xuanfei Baidu formula against COVID-19 via SARS-CoV-2 M^pro” (Chinese Medicine, 2023)

How the values were obtained:
Omicron BA.1.1 variant = test: Antiviral activity assay (CPE) in Vero E6 cells, Omicron BA.1.1; assay type: cell-based, SARS-CoV-2; settings: Severe acute respiratory syndrome coronavirus 2, Vero C1008, 48 h
Omicron BA.2.3 variant = test: Antiviral activity assay (CPE) in Vero E6 cells, Omicron BA.2.3; assay type: cell-based, SARS-CoV-2; settings: Severe acute respiratory syndrome coronavirus 2, Vero C1008, 48 h

## C[C@@H]1O[C@@H](O[C@@H]2[C@@H](O)[C@H](OCCc3ccc(O)c(O)c3)O[C@H](CO)[C@H]2OC(=O)/C=C/c2ccc(O)c(O)c2)[C@H](O)[C@H](O)[C@H]1O [Acteoside]
Omicron BA.1.1 variant
  EC50: 41.3 µM
Omicron BA.2.3 variant
  EC50: 70.4 µM
